Measurements from the NIST ThermoML archive (doi:10.1016/j.jct.2013.11.013).
“And” between values parts separate entries of the source, which are not always exact repeats. Equal entries are not always repeated.

Tests used:
[1] = Crystal; for vapor or sublimation pressure: Calculated from knudsen effusion weight loss; for Normal melting temperature: DTA
[2] = Molar enthalpy of transition or fusion; conditions: Crystal; DSC
[3] = molar enthalpy of vaporization or sublimation; conditions: 298.15 K; Crystal; Static calorimetry

c1ccc2c(c1)Nc1ccccc1S2 [10H-phenothiazine]
[1]
Conditions | vapor or sublimation pressure
357.16 K | 0.0001222 kPa and 0.000127 kPa and 0.0001245 kPa
359.11 K | 0.000157 kPa and 0.0001593 kPa and 0.000151 kPa
361.09 K | 0.0001862 kPa and 0.0001894 kPa
363.16 K | 0.0002302 kPa and 0.0002289 kPa and 0.0002278 kPa
365.1 K | 0.0002854 kPa and 0.0002713 kPa and 0.0002851 kPa
367.08 K | 0.0003408 kPa and 0.0003366 kPa and 0.0003279 kPa
369.16 K | 0.0004206 kPa and 0.0004159 kPa and 0.0004168 kPa
371.1 K | 0.0005122 kPa and 0.000496 kPa and 0.000513 kPa
373.09 K | 0.0006118 kPa and 0.0005996 kPa
375.14 K | 0.0007352 kPa and 0.0007169 kPa and 0.0007525 kPa
377.11 K | 0.0008924 kPa and 0.0008545 kPa and 0.0008994 kPa
379.1 K | 0.0009984 kPa and 0.0009874 kPa and 0.001053 kPa

Conditions | Molar enthalpy of transition or fusion [kJ/mol] | Normal melting temperature [°C] | molar enthalpy [kJ/mol]
[1] | – | 185.70 | –
[2] | 26.9 | – | –
[3] | – | – | 103.3

c1ccc2c(c1)Nc1ccccc1O2 [phenoxazine]
[1]
Conditions | vapor or sublimation pressure
333.18 K | 9.52e-05 kPa and 9.41e-05 kPa and 9.09e-05 kPa
335.2 K | 0.0001178 kPa and 0.000118 kPa and 0.0001119 kPa
337.1 K | 0.0001463 kPa and 0.000143 kPa and 0.0001421 kPa
339.17 K | 0.0001789 kPa and 0.0001744 kPa and 0.0001819 kPa
341.24 K | 0.0002193 kPa and 0.0002141 kPa and 0.0002236 kPa
343.14 K | 0.0002773 kPa and 0.0002712 kPa and 0.0002629 kPa
345.17 K | 0.0003274 kPa and 0.0003216 kPa and 0.0003308 kPa
347.19 K | 0.0004072 kPa and 0.0003893 kPa and 0.0004049 kPa
349.11 K | 0.000488 kPa and 0.0004919 kPa and 0.0004776 kPa
351.17 K | 0.000606 kPa and 0.0005906 kPa and 0.0006233 kPa
353.17 K | 0.0007525 kPa and 0.000734 kPa and 0.0007159 kPa
355.1 K | 0.0008813 kPa and 0.0008967 kPa and 0.0008889 kPa
357.1 K | 0.001069 kPa and 0.001075 kPa and 0.001077 kPa

Conditions | Molar enthalpy of transition or fusion [kJ/mol] | Normal melting temperature [°C] | molar enthalpy [kJ/mol]
[1] | – | 157.58 | –
[2] | 21.5 | – | –
[3] | – | – | 101.5
